Data as given in article doi:10.1101/2021.09.30.462449v1 (biorxiv, 2021).

Assays:
Experiment in all cases: biochemical
Conditions in all cases: read-out: % inhibition mean (Z'Lyte)
ZAP70 = ZAP70 (Homo sapiens, UniProt P43403)
PIM3 = PIM3 (Homo sapiens, UniProt Q86V86)
MAPK13 (p38 delta) = MAPK13 (p38 delta) (Homo sapiens, UniProt O15264)
FGFR4 = FGFR4 (Homo sapiens, UniProt P22455)
NTRK1 (TRKA) = NTRK1 (TRKA) (Homo sapiens, UniProt P04629)
CSNK1G1 (CK1 gamma 1) = CSNK1G1 (CK1 gamma 1) (Homo sapiens, UniProt Q9HCP0)
JAK1 = JAK1 (Homo sapiens, UniProt P23458)
Chain of JAK1 (P23458 whole entry): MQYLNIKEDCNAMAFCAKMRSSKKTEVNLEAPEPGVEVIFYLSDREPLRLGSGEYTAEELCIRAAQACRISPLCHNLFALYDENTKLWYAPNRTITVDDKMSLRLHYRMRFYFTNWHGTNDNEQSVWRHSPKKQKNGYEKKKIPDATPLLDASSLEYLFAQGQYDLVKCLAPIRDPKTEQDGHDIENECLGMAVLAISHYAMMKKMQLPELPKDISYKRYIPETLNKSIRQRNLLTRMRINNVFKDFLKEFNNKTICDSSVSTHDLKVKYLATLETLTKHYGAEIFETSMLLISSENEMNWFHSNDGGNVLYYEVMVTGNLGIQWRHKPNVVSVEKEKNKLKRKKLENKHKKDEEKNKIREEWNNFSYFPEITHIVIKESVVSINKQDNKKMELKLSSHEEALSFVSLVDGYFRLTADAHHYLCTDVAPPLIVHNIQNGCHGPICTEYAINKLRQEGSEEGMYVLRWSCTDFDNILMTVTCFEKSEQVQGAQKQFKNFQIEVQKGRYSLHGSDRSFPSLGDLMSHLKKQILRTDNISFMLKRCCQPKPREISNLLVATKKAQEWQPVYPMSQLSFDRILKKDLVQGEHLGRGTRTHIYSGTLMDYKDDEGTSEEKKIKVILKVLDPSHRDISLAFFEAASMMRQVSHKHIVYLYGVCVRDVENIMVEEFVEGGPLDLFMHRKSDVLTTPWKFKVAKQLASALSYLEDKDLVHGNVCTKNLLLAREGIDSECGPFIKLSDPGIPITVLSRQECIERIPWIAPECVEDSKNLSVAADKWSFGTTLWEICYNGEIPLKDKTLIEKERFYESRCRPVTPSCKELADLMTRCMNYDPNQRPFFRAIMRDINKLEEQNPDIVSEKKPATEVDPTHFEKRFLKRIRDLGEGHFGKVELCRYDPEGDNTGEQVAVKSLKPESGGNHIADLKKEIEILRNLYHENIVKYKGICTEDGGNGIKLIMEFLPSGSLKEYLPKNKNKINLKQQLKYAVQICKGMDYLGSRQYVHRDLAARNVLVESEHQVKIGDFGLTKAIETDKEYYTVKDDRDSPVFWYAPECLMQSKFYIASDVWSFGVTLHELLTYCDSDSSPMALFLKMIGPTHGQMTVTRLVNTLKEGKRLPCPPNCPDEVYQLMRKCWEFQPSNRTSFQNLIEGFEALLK

HIPK3 (YAK1) = HIPK3 (YAK1) (Homo sapiens, UniProt Q9H422)
Chain of HIPK3 (YAK1) (Q9H422 whole entry): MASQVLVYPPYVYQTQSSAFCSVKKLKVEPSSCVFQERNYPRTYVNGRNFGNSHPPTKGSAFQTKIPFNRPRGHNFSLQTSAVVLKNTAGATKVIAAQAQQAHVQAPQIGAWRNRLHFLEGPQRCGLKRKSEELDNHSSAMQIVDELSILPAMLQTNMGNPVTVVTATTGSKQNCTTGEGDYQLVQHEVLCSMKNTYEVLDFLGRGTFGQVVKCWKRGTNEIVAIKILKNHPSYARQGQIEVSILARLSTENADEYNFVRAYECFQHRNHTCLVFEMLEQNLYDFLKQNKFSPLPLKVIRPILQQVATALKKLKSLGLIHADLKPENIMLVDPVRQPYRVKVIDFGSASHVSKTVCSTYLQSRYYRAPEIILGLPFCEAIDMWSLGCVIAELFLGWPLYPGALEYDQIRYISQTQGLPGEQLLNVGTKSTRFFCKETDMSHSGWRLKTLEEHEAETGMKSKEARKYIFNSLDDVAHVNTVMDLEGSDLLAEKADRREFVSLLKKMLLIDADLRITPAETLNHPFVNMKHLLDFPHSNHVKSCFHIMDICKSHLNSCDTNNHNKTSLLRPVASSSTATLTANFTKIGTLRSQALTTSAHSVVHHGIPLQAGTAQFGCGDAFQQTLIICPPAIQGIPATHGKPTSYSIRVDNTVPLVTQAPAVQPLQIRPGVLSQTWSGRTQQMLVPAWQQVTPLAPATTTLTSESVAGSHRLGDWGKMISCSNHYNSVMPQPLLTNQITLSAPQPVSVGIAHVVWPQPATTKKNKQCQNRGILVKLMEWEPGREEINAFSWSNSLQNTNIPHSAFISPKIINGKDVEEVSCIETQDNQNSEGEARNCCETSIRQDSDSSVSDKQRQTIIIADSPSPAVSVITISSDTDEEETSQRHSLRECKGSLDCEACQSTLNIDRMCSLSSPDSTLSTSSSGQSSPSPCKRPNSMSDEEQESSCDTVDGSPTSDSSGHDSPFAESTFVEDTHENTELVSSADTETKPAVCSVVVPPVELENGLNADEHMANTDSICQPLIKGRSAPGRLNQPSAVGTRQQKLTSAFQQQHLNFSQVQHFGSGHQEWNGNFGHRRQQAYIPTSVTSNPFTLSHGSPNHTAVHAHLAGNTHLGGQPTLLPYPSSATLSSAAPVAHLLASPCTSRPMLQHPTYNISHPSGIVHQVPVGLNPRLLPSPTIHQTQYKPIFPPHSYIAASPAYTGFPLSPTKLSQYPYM

PRKG1 = PRKG1 (Homo sapiens, UniProt Q13976)
CLK1 = CLK1 (Homo sapiens, UniProt P49759)
TYK2 = TYK2 (Homo sapiens, UniProt P29597)
MKNK1 (MNK1) = MKNK1 (MNK1) (Homo sapiens, UniProt Q9BUB5)
FGFR1 = FGFR1 (Homo sapiens, UniProt P11362)
Chain of FGFR1 (P11362 whole entry): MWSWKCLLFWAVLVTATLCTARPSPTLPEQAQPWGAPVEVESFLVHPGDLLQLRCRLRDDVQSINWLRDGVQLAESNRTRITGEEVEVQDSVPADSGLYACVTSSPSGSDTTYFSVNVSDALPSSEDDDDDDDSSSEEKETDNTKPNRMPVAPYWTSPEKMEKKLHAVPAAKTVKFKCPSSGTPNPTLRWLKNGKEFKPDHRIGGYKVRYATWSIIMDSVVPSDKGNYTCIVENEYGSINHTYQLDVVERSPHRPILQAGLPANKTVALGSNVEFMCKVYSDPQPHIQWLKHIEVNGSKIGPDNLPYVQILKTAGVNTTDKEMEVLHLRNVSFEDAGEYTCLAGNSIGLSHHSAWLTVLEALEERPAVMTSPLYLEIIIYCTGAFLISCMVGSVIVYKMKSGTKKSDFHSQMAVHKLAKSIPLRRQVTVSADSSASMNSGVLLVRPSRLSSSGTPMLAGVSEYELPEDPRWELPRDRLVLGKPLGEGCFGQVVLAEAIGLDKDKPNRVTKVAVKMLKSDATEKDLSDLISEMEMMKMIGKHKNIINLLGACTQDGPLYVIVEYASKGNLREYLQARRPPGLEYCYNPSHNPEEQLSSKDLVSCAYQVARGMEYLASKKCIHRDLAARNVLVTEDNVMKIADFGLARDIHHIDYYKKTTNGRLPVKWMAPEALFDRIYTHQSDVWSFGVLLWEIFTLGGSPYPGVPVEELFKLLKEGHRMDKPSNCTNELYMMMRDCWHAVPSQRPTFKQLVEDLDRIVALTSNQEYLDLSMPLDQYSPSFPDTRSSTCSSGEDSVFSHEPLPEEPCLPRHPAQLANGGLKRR

SGKL (SGK3) = SGKL (SGK3) (Homo sapiens, UniProt Q96BR1)
Chain of SGKL (SGK3) (Q96BR1 whole entry): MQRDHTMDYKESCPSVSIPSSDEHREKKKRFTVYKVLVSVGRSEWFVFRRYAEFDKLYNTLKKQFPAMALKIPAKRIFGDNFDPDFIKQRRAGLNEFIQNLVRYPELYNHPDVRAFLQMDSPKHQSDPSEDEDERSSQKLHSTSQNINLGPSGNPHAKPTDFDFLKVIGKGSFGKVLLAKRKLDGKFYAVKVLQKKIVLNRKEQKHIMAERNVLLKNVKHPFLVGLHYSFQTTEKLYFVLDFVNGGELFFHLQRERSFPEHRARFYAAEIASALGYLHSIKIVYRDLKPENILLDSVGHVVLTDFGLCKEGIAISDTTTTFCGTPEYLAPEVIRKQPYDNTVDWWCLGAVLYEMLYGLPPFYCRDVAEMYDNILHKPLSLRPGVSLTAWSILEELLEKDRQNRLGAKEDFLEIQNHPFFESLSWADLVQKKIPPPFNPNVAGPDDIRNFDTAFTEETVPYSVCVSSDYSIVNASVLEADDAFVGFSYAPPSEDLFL

BRAF = BRAF (Homo sapiens, UniProt P15056)
Chain of BRAF (P15056 whole entry): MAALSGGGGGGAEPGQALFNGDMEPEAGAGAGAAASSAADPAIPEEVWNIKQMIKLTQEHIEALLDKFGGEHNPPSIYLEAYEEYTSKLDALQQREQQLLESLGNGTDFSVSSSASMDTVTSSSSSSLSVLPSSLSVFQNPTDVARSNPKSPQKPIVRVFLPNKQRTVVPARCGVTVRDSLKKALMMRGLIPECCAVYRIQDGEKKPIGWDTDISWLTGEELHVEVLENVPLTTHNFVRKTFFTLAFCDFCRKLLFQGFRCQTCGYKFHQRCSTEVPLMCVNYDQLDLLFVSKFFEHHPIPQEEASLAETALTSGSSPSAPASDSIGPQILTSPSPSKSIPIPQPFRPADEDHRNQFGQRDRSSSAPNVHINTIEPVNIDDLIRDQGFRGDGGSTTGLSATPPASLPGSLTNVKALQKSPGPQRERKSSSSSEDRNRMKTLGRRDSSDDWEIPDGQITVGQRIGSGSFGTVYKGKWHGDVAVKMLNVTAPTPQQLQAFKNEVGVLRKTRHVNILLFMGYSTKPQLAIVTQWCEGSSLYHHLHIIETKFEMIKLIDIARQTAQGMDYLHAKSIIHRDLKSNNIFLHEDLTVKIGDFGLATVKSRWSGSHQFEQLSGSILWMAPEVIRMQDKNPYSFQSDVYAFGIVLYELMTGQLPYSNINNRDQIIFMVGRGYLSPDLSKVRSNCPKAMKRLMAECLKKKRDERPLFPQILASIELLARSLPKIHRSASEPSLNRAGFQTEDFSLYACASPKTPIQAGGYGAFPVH

STK22D (TSSK1) = STK22D (TSSK1) (Homo sapiens, UniProt Q9BXA7)
FLT4 (VEGFR3) = FLT4 (VEGFR3) (Homo sapiens, UniProt P35916)
DNA-PK = DNA-PK (Homo sapiens, UniProt P78527)
NEK6 = NEK6 (Homo sapiens, UniProt Q9HC98)
KIT T670I = KIT T670I (Homo sapiens, UniProt P10721, T670I)
PAK6 = PAK6 (Homo sapiens, UniProt Q9NQU5)
MAPK3 (ERK1) = MAPK3 (ERK1) (Homo sapiens, UniProt P27361)
KSR2 = KSR2 (Homo sapiens, UniProt Q6VAB6)
ROS1 = ROS1 (Homo sapiens, UniProt P08922)
PLK2 = PLK2 (Homo sapiens, UniProt Q9NYY3)
CLK3 = CLK3 (Homo sapiens, UniProt P49761)
PRKCQ (PKC theta) = PRKCQ (PKC theta) (Homo sapiens, UniProt Q04759)
SRPK2 = SRPK2 (Homo sapiens, UniProt P78362)
NEK2 = NEK2 (Homo sapiens, UniProt P51955)
Chain of NEK2 (P51955 whole entry): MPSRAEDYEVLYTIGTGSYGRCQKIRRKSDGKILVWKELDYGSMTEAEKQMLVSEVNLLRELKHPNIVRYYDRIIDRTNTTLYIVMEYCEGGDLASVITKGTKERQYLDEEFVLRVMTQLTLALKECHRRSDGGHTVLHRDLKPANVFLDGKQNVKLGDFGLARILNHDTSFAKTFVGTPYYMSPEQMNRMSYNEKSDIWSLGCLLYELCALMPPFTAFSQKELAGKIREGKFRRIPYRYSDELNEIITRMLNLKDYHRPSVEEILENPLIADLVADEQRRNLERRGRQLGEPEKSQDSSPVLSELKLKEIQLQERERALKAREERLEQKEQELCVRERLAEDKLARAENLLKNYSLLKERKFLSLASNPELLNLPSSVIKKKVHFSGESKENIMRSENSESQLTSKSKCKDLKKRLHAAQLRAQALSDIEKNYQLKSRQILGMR

**Q.** How did the inhibition at 1 µM (ZAP70) turn out when COc1ccc2nc3cc(Cl)ccc3c(Nc3cc(CN4CCCC4)c(O)c(CN4CCCC4)c3)c2n1 [Pyronaridine, 4-[(7-Chloro-2-methoxybenzo[b][1,5]naphthyridin-10-yl)amino]-2,6-bis(1-pyrrolidinylmethyl)phenol phosphate (1:4)] was run?
**A.** 4%

**Q.** What about the inhibition at 1 µM (PIM3) of the same compound?
**A.** 12%

**Q.** And the inhibition at 1 µM (MAPK13 (p38 delta))?
**A.** 5%

**Q.** And the inhibition at 1 µM (FGFR4)?
**A.** -14%

**Q.** What about the inhibition at 1 µM (NTRK1 (TRKA)) of the same compound?
**A.** 19%

**Q.** What about the inhibition at 1 µM (CSNK1G1 (CK1 gamma 1)) of the same compound?
**A.** 0%

**Q.** And the inhibition at 1 µM (JAK1)?
**A.** 0%

**Q.** What about the inhibition at 1 µM (HIPK3 (YAK1)) of the same compound?
**A.** -2%

**Q.** What about the inhibition at 1 µM (PRKG1) of the same compound?
**A.** -6%

**Q.** What about the inhibition at 1 µM (CLK1) of the same compound?
**A.** -1%

**Q.** And the inhibition at 1 µM (TYK2)?
**A.** 0%

**Q.** And the inhibition at 1 µM (MKNK1 (MNK1))?
**A.** 4%

**Q.** And the inhibition at 1 µM (FGFR1)?
**A.** -5%

**Q.** What about the inhibition at 1 µM (SGKL (SGK3)) of the same compound?
**A.** 0%

**Q.** What about the inhibition at 1 µM (BRAF) of the same compound?
**A.** 4%

**Q.** What about the inhibition at 1 µM (STK22D (TSSK1)) of the same compound?
**A.** 6%

**Q.** What about the inhibition at 1 µM (FLT4 (VEGFR3)) of the same compound?
**A.** 3%

**Q.** What about the inhibition at 1 µM (DNA-PK) of the same compound?
**A.** 5%

**Q.** What about the inhibition at 1 µM (NEK6) of the same compound?
**A.** -3%

**Q.** And the inhibition at 1 µM (KIT T670I)?
**A.** 1%

**Q.** And the inhibition at 1 µM (PAK6)?
**A.** -2%

**Q.** What about the inhibition at 1 µM (MAPK3 (ERK1)) of the same compound?
**A.** 6%

**Q.** And the inhibition at 1 µM (KSR2)?
**A.** 2%

**Q.** What about the inhibition at 1 µM (ROS1) of the same compound?
**A.** -6%

**Q.** And the inhibition at 1 µM (PLK2)?
**A.** 5%

**Q.** And the inhibition at 1 µM (CLK3)?
**A.** -3%

**Q.** What about the inhibition at 1 µM (PRKCQ (PKC theta)) of the same compound?
**A.** 8%

**Q.** And the inhibition at 1 µM (SRPK2)?
**A.** -4%

**Q.** What about the inhibition at 1 µM (NEK2) of the same compound?
**A.** -4%
